# Paper PMC8587043, “An Investigation into the Interaction between Double Hydroxide-Based Antioxidant Benzophenone Derivatives and Cyclooxygenase 2” (Molecules, 2021)
# Assays:
# COX2 [1] = molecular target: T1, COX2 (Homo sapiens, UniProt P35354); test: Biolayer interferometry (BLI) binding to His-tagged COX2 on Ni-NTA sensors; details: for Kd: BLI, one-to-one binding model, 4–6 point concentration series, read-out: KD (equilibrium dissociation constant); for COX2 binding in BLI: initial assay at 100 μM, binders re-assayed in concentration series
# T1 construct: purchased Sino Biological Co. (Beijing, China)
# T1 sequence (P35354 18-604): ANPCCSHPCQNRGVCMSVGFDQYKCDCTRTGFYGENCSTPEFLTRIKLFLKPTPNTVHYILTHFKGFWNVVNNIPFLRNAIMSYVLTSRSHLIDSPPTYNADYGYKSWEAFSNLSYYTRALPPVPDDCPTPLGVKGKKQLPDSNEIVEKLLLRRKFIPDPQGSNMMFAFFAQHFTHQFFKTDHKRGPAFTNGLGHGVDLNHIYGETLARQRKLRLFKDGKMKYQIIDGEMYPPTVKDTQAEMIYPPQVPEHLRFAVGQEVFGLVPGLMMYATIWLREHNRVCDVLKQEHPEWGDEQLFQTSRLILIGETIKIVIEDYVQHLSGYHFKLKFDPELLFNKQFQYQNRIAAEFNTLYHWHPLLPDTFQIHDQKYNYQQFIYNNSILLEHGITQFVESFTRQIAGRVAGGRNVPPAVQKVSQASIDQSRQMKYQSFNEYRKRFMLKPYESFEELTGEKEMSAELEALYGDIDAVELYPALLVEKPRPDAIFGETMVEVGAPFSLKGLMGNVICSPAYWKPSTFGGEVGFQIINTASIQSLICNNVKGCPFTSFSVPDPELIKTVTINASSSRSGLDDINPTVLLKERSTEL
# From the text: The label-free real-time binding assay, BLI, was firstly performed to evaluate the potential COX2 binding activities of the twelve novel compounds. COX2 protein was captured onto the Ni-NTA sensors, by the virtue of its His-tag, followed by exposure to small-molecule compound. The binding of small-molecule compound to the biosensor increased the layer thickness of the sensor, resulting in an interference wavelength shift recorded by BLI. All 12 compounds were initially assayed at a single concentration of 100 μM (Figure 2a).
# A significant shift in the association curve was observed upon addition of different concentrations of compounds DB2, SC2 and YB2 to COX2 in a concentration dependent manner (Figure 2b–d). During the dissociation step, it was also observed that the signal decreased to the baseline. That was a sign of a total protein-ligand dissociation, thus indicating the interaction was reversible. The real-time binding curves were generated fitting to a one-to-one binding model. The ratio of koff (dissociation) and kon (association) constants was equilibrium dissociation constants (KD).
# His-tagged COX2 solution (40 μg∙mL^−1), which was prepared in phosphate buffer saline (PBS), was immobilized on Ni-NTA biosensor tips for 600 s. To remove drift and well-to-well artifacts, we performed double reference subtraction with FortéBio data analysis software. All the twelve compounds stock solutions (10 mM) were prepared in dimethyl sulfoxide (DMSO). The stock solutions were diluted with PBS containing 0.1% […] (PBST) to 100 μM for the initial assay. Typically, for re-assay, the stock solutions were serially diluted (4–6 point serial dilutions) in PBST. Compound testing was performed sequentially taking baseline, association and dissociation steps. Each of these steps took 60 s. The alignment of data was carried out using baseline signal and curves fitted with a one to one best-fit model in FortéBio’s data analysis software.
# COX2 [2] = molecular target: T1, COX2; test: Three-dimensional fluorescence spectroscopy of COX2-compound systems; format: binding; details: for Peak Position λex/λem, peak 2 / Relative Intensity (I), peak 2 / Relative Intensity (I), peak 1: compound 4.50 × 10^−5 mol∙L^−1, 298 K; for Relative Intensity (I), peak 2: COX2 alone 775; for Relative Intensity (I), peak 1: COX2 alone 874
# From the text: Three-dimensional fluorescence spectroscopy can reflect the microenvironment of related fluorophores. It was employed to study the structural changes of COX2 before and after binding. Peak 1 and peak 2 were maintained at 272/338 nm and 230/337 nm, respectively. […] Peak 2 reflected the fluorescence information of the polypeptide backbone structure of COX2, involving pi-to-pi* transition related to the secondary structure changes. According to Figure 7 and Table 3, both peak 1 and peak 2 of COX2 had been quenched. […] Furthermore, the fluorescence intensity of peak 1 was higher than that of peak 2 in the spectra for COX2-SC2 complex (Table 3). It implies that the fluorescence quenching of COX2 by compound SC2 on peak 2 was more evident than on peak 1. We could draw a conclusion that the interaction of compound SC2 with COX2 induced the slight opening of the polypeptides of protein, thereafter changing the conformation of COX2. […] Comparison of Figure 7a with Figure 7c also implied that there was a blue shift of 5.5 nm for peak 1, and 4 nm for peak 2. […] These changes induced the increase in hydrophobicity of COX2, decrease in collisions between COX2 molecules and water, and increase in the quantum yield of COX2. […] Taken together, these combined results implicate the ability of compounds DB2, SC2 and YB2 to bind to COX2.
# The fluorescence intensity of the system was measured with a 1.0 cm quartz cell. […] DB2, SC2 or YB2 stock solutions were prepared in singleton at 1.5 × 10^−3 mol∙L^−1 in PBS containing 0.1% DMSO. 2.0 mL COX2 solution was separately titrated by continuing additions of 10 μL compounds DB2, SC2 or YB2 solution). After incubation at 298 K or 310 K, fluorescence quenching spectra were recorded in the region 325-450 nm at a scan rate of 1200 nm∙min^−1. The local environment of Tyr and Trp residues was quite sensitive at 280 nm, so the excitation wavelength was set at this wavelength. Typically, 280 nm is also used to measure the changes in protein tertiary structure. The slit widths of emission and excitation were both fixed at 10 nm. To observe spectra behaviors of Tyr and Trp groups of COX2, the wavelength interval between the excitation and emission wavelengths (Δλ) was set as 15 nm and 60 nm, respectively. Three-dimensional fluorescence spectroscopy was obtained for an excitation range of 200–300 nm and an emission range of 325–400 nm. Appropriate buffer solutions, determined under the same operation conditions, were used as blanks. Each spectrum was recorded three times.
Kd (COX2 [1]) [µM],COX2 binding in BLI (COX2 [1]),"Peak Position λex/λem, peak 2 (COX2 [2])","Relative Intensity (I), peak 2 (COX2 [2])","Relative Intensity (I), peak 1 (COX2 [2])",blue shift of peak 1 (COX2 [2]; COX2-compound vs COX2 alone) [nm],blue shift of peak 2 (COX2 [2]; COX2-compound vs COX2 alone) [nm],Compound
394,interacted with the protein,236/337,153,665,–,–,CCCCc1ccc(C(=O)c2c(Br)cc(O)c(O)c2O)cc1 [DB2]
627,interacted with the protein,236/333,82.9,395,5.5,4,CC(C)(C)c1ccc(C(=O)c2c(Cl)cc(O)c(O)c2O)cc1 [SC2]
766,interacted with the protein,236/336,103,472,–,–,CC(C)Cc1ccc(C(=O)c2c(Br)cc(O)c(O)c2O)cc1 [YB2]
